Data: patent US8993714B2, “Streptavidin macromolecular adaptor and complexes thereof” (Imiplex LLC, priority 2007, dated 2015)

What was measured:
[1] = molecular target: T1, streptavidin (Streptomyces avidinii, UniProt P22629); assay: Ligand binding to the streptavidin biotin binding site (dissociation constant)
Description: A strut can be formed from streptavidin (FIG. 1), a tetrameric protein of 60 kiloDalton molecular weight secreted by the bacterium Streptomyces avidinii. […] Part d designates two of the four bound biotins on the same “side” of the tetramer in space filling representation. Part e is a representation of the streptavidin tetramer surface showing overall molecular shape.
For example, the first and/or the second moiety can be an iminobiotin group. […] However, at pH values of less than or equal to about 4, the imino group on iminobiotin becomes charged, so that it is displaced from the streptavidin binding site. Thus, a structure can be temporarily formed using an iminobiotin-functionalized crosslinking reagent. […] Then, by lowering the pH below 4, the iminobiotin bonds can release, and components of the temporary structure can be washed away. Thus, a bifunctional crosslinking reagent with an iminobiotin group as the first and/or second moiety can be used to form a temporary scaffold, which assists in the construction of a permanent nanostructure.
More generally, the dyes can be used to monitor the assembly of streptavidin-linked nanostructures.
MALDI or ESI MS can be used to characterize the species. […] FIGS. 34c and 34d show the structures of the 1:1 and 1:2 Azido-ATP-linked SAV:SAMA complexes. Spectroscopic methods can be used to monitor SAV:SAMA complex formation using a dye displacement approach and using DLS alone or combined with static light scattering.

[2] = molecular target: T1, streptavidin; details: neutral pH; read-out: iminobiotin dissociation constant; cited from earlier work
[3] = Stability on 4-12% Bis-TRIS MOPS SDS PAGE after heating at 70° C. with reducing agent and SDS; assay type: physicochemical; details: 70° C. for 10 minutes with reducing agent and SDS
Experimental: We established optimal conditions for complex formation. One issue involved the existence of stable dimeric, trimeric and higher aggregates of streptavidin in most preparations (Sano & Cantor 1990b; Kurzban et al. 1991; Waner et al. 2004). We found the aggregates of liganded and unliganded streptavidin stable to heating at 70° C. and the liganded streptavidin aggregates also stable in SDS PAGE running buffers (FIG. 33). We exploited these features in a gel assay to help assess complexation in both denaturing and native gels (see FIG. 33). The left and middle panels of FIG. 33 show complexes of SAMA and streptavidin analyzed on 4-12% Bis-TRIS gels with 3-(N-Morpholino)propanesulfonic acid (MOPS) SDS running buffer. […] Prior to loading, samples were heated at 70° C. for 10 minutes together with reducing agent and SDS. Lanes are numbered on the top and the sample identity (SAMA and linking reagent) given below. Mark12 MW standards (Invitrogen) are in Lane 1. […] Schematics on the left indicate the electrophoretic mobilities of control molecules including the streptavidin monomer, derivatized and underivatized SAMA monomers, the streptavidin:biotin tetramer and higher order aggregates of the streptavidin:biotin tetramer. Brackets and schematics on the right indicate probable electrophoretic mobilities of SAMA:SAV complexes. […]

T1 sequence (P22629 25-183): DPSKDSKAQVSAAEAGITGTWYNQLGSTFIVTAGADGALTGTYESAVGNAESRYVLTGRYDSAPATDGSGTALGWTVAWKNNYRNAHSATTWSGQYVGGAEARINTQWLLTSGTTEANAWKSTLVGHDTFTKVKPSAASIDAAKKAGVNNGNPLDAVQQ

Molecule: O=C(O)c1ccccc1N=Nc1ccc(O)cc1 [HABA, 4′-hydroxyazobenzene-2-carboxylic acid]
- binds more weakly to streptavidin than biotin [1]: 8 orders of magnitude
- binds more weakly to streptavidin than iminobiotin [1]: 5 orders of magnitude

Molecule: N=C1N[C@H]2[C@H](CS[C@H]2CCCCC(=O)O)N1 [iminobiotin]
- iminobiotin dissociation constant relative to biotin-streptavidin dissociation constant, orders of magnitude greater [1]: 3 orders of magnitude
- Kd [2]: ~0.01 nM

Molecule: streptavidin: tetrameric protein of 60 kiloDalton secreted by Streptomyces avidinii with 4 biotin binding sites
- folded state under gel conditions [3]: denatured
